# ChEMBL document CHEMBL3616434, “Identification of Phenoxyalkylbenzimidazoles with Antitubercular Activity” (J Med Chem, 2015)
# Activity calls are given as the source filed them. No cut-off for these calls is given here.
# How the values were obtained:
# [1] = system: Mycobacterium tuberculosis; test: Antitubercular activity against Mycobacterium tuberculosis H37Rv ATCC 25618 under aerobic condition after 5 days; assay type: functional; conditions: H37Rv ATCC 25618, 120 h
# [2] = Cytotoxicity against African green monkey Vero cells after 2 days by luminescent assay; assay type: cell-based; conditions: chlorocebus sabaeus, read-out: TC50
# [3] = Selectivity index, ratio of TC50 for African green monkey Vero cells to MIC for Mycobacterium tuberculosis H37Rv ATCC 25618
# [4] = Thermodynamic equilibrium solubility of the compound using 10 mM DMSO at pH 6; assay type: physicochemical; conditions: buffer, read-out: Therm_solubility
# [5] = Thermodynamic equilibrium solubility of the compound using 10 mM DMSO at pH 7.4; assay type: physicochemical; conditions: buffer, read-out: Therm_solubility
# [6] = Metabolic stability of the compound in human liver microsomes assessed as compound turnover at 2 uM after 30 mins by LC-MS analysis; assay type: ADME; conditions: read-out: Drug metabolism
# [7] = Metabolic stability of the compound in rat liver microsomes assessed as compound turnover at 2 uM after 30 mins by LC-MS analysis; assay type: ADME; conditions: read-out: Drug metabolism
# [8] = Thermodynamic equilibrium solubility of the compound using 10 mM DMSO at pH 2; assay type: physicochemical; conditions: buffer, read-out: Therm_solubility
# [9] = Metabolic stability of the compound in mouse liver microsomes assessed as compound turnover at 2 uM after 30 mins by LC-MS analysis; assay type: ADME; conditions: read-out: Drug metabolism
# [10] = system: Mycobacterium tuberculosis; test: Bactericidal activity against replicating Mycobacterium tuberculosis at 1 to 10 times MIC after 21 days; assay type: functional, organism-based
# Staphylococcus aureus = test: Antimicrobial activity against Staphylococcus aureus after 2 days by serial proportion method; assay type: functional; conditions: 48 h
# Escherichia coli = test: Antimicrobial activity against Escherichia coli after 1 day by serial proportion method; assay type: functional; conditions: 24 h
# [11] = system: Mycobacterium tuberculosis; test: Antitubercular activity against Mycobacterium tuberculosis after 21 to 28 days by serial proportion method; assay type: functional
# [12] = system: Mycolicibacterium smegmatis; test: Antimicrobial activity against Mycobacterium smegmatis MC2 155 after 5 to 7 days by serial proportion method; assay type: functional; conditions: str. MC2 155
# [13] = Fraction unbound in mouse plasma after 4.5 hrs by LC-MS/MS analysis; assay type: ADME, cell-free
# MDCK = test: Passive permeability of the compound from apical to basolateral direction in MDCK cells at 10 uM in presence of P-gp inhibitor; assay type: ADME, cell-based, Canis lupus familiaris; conditions: dog
SMILES,MIC [1],CC50 at 48 h [2],Ratio [3],other results
CCc1nc2ccccc2n1CCCCOc1ccc(C)c(C)c1,0.3 µM,14 µM,53,
CCc1nc2cnc(C)cc2n1CCCCOc1ccccc1,1.5 µM,71 µM,47,
CCc1nc2ccc(C)cc2n1CCCCNc1ccccc1,0.32 µM,21 µM,66,
CCc1nc2ccccc2n1CCCCOc1cccnc1,> 20 µM,> 50 µM,,
CCc1cc2ccccc2n1CCCCOc1ccc(C)c(Cl)c1,> 20 µM,,,
CCc1nc2ccccc2n1CCOc1ccccc1,> 20 µM,,,
CCc1cc2ccccc2n1CCCCNc1ccc(C)c(Br)c1,> 20 µM,,,
Cc1ccc2nc(C(C)O)n(CCCCOc3ccccc3)c2c1 (centres undefined),20 µM,,,
CCc1nc2ccccc2n1CCCCOc1ccnc2ccccc12,> 20 µM,> 50 µM,,
CCc1nc2ccccc2n1CCCCOc1ccncc1,> 20 µM,> 50 µM,,
Cc1nc2ccccc2n1CCCOc1ccccc1,> 20 µM,> 50 µM,,
CCc1nc2ccc(C)cc2n1CCCCOc1ccccc1,0.27 µM,18 µM,67,"solubility thermodynamic [4]: 40 µg/mL; solubility thermodynamic [5]: 10 µg/mL; metabolised at 0.5 h, 2 µM [6]: 98.9%; metabolised at 0.5 h, 2 µM [7]: 99.9%; solubility thermodynamic [8]: 630 µg/mL; metabolised at 0.5 h, 2 µM [9]: 99.9%"
Cc1ccc2nc(C(C)O)n(CCCCOc3ccc(C)c(Cl)c3)c2c1 (centres undefined),11 µM,8.6 µM,0.8,
CCc1nc2ccc(C)cc2n1CCCOc1ccc(C)c(Cl)c1,0.22 µM,17 µM,77,Activity [10]: inactive
c1ccc(OCCCCn2ncc3ccccc32)cc1,> 20 µM,> 50 µM,,
CN1CCN(c2nc3ccccc3n2CCCCOc2ccccc2)CC1,> 20 µM,,,
CCc1nc2ccccc2n1CCCCOc1ccc2sc(C)nc2c1,1.5 µM,21 µM,14,
FC(F)(F)c1nc2ccccc2n1CCCCOc1ccccc1,> 20 µM,,,
CCc1nc2ccc(C)cc2n1CCCNc1ccc(Br)c(C)c1,0.052 µM,27 µM,523,Activity [10]: inactive
c1ccc(OCCCCn2cnc3ccccc32)cc1,> 20 µM,,,
CCc1nc2ccc(C#N)cc2n1CCCCOc1ccccc1,> 20 µM,> 20 µM,>20,
CCc1nc2cnccc2n1CCCCOc1ccccc1,> 20 µM,,,
Cc1nc2ccccc2n1CCCCOc1ccccc1,> 20 µM,> 50 µM,,

SMILES,MIC [1],CC50 at 48 h [2],Ratio [3],other results
CCc1nc2ccccc2n1CCCCSc1ccccc1,1.4 µM,31 µM,22,MIC99 (Staphylococcus aureus): > 100 µM; MIC99 (Escherichia coli): > 100 µM; MIC99 [11]: 10 µM; MIC99 [12]: > 100 µM
CCc1nc2ccccc2n1CCCCOc1ccccc1C,0.32 µM,16 µM,50,
CCc1nc2ccccc2n1CCCCOc1ccc(Cl)cc1,1.5 µM,14 µM,9.3,
CCc1nc2ccccc2n1CCCCOc1ccc(Cl)cc1C,1.5 µM,20 µM,2.3,
CCc1nc2ccccc2n1CCCCOc1c(Cl)cccc1Cl,20 µM,13 µM,1.5,
CCc1nc2ccccc2n1CCCCOc1ccc(Cl)cc1Cl,1.8 µM,23 µM,13,
CCc1nc2ccccc2n1CCCCOC,> 20 µM,> 50 µM,,
CCc1nc2ccccc2n1CCCCOc1ccc(OC)cc1,1.2 µM,21 µM,27,
CCc1nc2cc(Cl)ccc2n1CCCCOc1ccccc1,0.3 µM,16 µM,53,"solubility thermodynamic [4]: < 1 µg/mL; solubility thermodynamic [5]: < 1 µg/mL; metabolised at 0.5 h, 2 µM [6]: 98.5%; fraction unbound at 4.5 h [13]: 0.004; metabolised at 0.5 h, 2 µM [7]: 99.7%; solubility thermodynamic [8]: 670 µg/mL; metabolised at 0.5 h, 2 µM [9]: 99.8%; permeability (MDCK): 3.6%"
CCc1nc2ccc(C)cc2n1CCCSc1ccc(C)cc1,3.3 µM,12 µM,3.6,
CCc1nc2ccccc2n1CCOc1ccc(Cl)cc1,> 20 µM,,,
CCc1nc2ccccc2n1CCCCOc1ccccc1Cl,0.68 µM,16 µM,23,
CCc1nc2ccccc2n1CCCCNc1ccccc1,0.47 µM,42 µM,89,"solubility thermodynamic [4]: 10 µg/mL; solubility thermodynamic [5]: < 1 µg/mL; metabolised at 0.5 h, 2 µM [6]: 90.6%; fraction unbound at 4.5 h [13]: 0.045; metabolised at 0.5 h, 2 µM [7]: 99.9%; solubility thermodynamic [8]: 610 µg/mL; Activity [10]: inactive; metabolised at 0.5 h, 2 µM [9]: 99.9%; permeability (MDCK): 21.5%"
Cc1nc2ccccc2n1CCOc1ccc(Cl)cc1,> 20 µM,,,
CCc1nc2ccccc2n1CCCCOc1ccc(C)c(Cl)c1,0.23 µM,14 µM,61,
c1ccc(OCCCCn2c(N3CCOCC3)nc3ccccc32)cc1,20 µM,20 µM,20,
CCc1nc2ccccc2n1CCCCOc1cccc(C)c1,0.42 µM,19 µM,45,
CCc1nc2ccccc2n1CCCCOc1cc(C)c(Cl)c([N+](=O)[O-])c1,7.9 µM,18 µM,19,
CCc1nc2ccccc2n1CC1COc2ccccc2O1 (centres undefined),> 20 µM,,,
CCc1nc2ccncc2n1CCCCOc1ccccc1,> 20 µM,,,
c1ccc(OCCCCn2c(-c3ccccc3)nc3ccccc32)cc1,16 µM,19 µM,1.2,
CCc1nc2ccc(OC)cc2n1CCCCOc1ccccc1,0.9 µM,27 µM,30,
CCc1nc2ccccc2n1CCCCOc1ccccc1,1.1 µM,21 µM,19,MIC99 (Staphylococcus aureus): > 100 µM; MIC99 (Escherichia coli): > 100 µM; MIC99 [11]: 5 µM; MIC99 [12]: > 100 µM

SMILES,MIC [1],CC50 at 48 h [2],Ratio [3],other results
Cc1nc2ccccc2n1CCOc1ccccc1,> 20 µM,,,
CC(=O)Nc1nc2ccc(C)cc2n1CCCCOc1ccc(C)c(Cl)c1,11 µM,8.3 µM,0.8,
CCc1nc2ccccc2n1CCCCOc1ccc(C#N)cc1,16 µM,27 µM,1.7,
CCc1nc2cc(OC)ccc2n1CCCCOc1ccccc1,> 20 µM,,,
CCc1nc2cc(C#N)ccc2n1CCCCOc1ccccc1,> 20 µM,> 20 µM,>20,
CCc1nc2ccccc2n1CCCCOCc1ccccc1,3.6 µM,32 µM,8.9,
Clc1nc2ccccc2n1CCCCOc1ccccc1,> 20 µM,,,
CCc1nc2ccccc2n1CCCCOc1ccc(Cl)cc1F,1.5 µM,5.7 µM,3.8,
CCc1nc2cc(Cl)cnc2n1CCCCOc1ccccc1,6.1 µM,38 µM,6.2,
CCc1nc2ccc(C)cc2n1CCCOc1ccc(C)c(C)c1,0.22 µM,7.3 µM,33,
CCc1cc2ccccc2n1CCCCSc1nnc(-c2ccc(Cl)cc2)o1,> 20 µM,> 50 µM,,
Nc1nc2ccccc2n1CCCCOc1ccccc1,> 20 µM,,,
CCc1nc2ccccc2n1CCCCOc1cccc(Cl)c1,0.88 µM,22 µM,25,
CCc1nc2ccccc2n1CCCCOc1ccc(N2CCOCC2)cc1,> 20 µM,32 µM,,
CCc1nc2ccc(C)cc2n1CCCCNc1ccc(C)c(Br)c1,0.11 µM,12 µM,109,
CCc1nc2ccc(Cl)cc2n1CCCCOc1ccccc1,7.1 µM,25 µM,3.5,
CCc1nc2ccc(C)cc2n1CCCCNc1ccc(C)cc1,0.15 µM,20 µM,133,
CCc1nc2ccccc2n1CCCCOc1ccccc1C(C)C,20 µM,19 µM,0.7,
CCc1nc2ccccc2n1CCCCOc1ccc(C)cc1,0.15 µM,14 µM,93,
CCc1nc2ccccc2n1CCCCOc1ccc(Cl)c(F)c1,1.6 µM,16 µM,10,
CCc1nc2ccc(C)cc2n1CCCCNc1ccc(C)cc1C,0.31 µM,20 µM,65,
CCc1nc2ccccc2n1CCCCOc1cc(C)c(CN2CCOCC2)cc1C,1.3 µM,48 µM,15,
CCc1nc2ccc(C)cc2n1CCCOc1ccc(C)cc1,0.27 µM,15 µM,56,
